Measurements from patent US8026110B2, “Combinatorial rosamine library and uses thereof” (New York University, priority 2006, dated 2011).
“Also recorded” adds a separate entry of the source.

System: DNA
Test: Screening of rosamine library toward 47 analytes: DNA
Type: binding
Conditions: screen of 47 analytes, duplicated, FIG. 10B
Procedure: The rosamine derivative compounds were screened toward 47 different analytes that include proteins, polysaccharides, nucleic acids, and metal ions. The stock solution of each dye (50 μL) in HEPES (20 mM, pH=7.4) or PBS (20 mM, pH=7.4) was prepared, and diluted with the each analyte (50 μL, 1.0 mg/mL or 200 μM) in the same buffer solution. The final dye concentration varied from 0.5 μM to 10 μM. The fluorescence intensity fold changes of each dye in the presence of analytes were calculated by comparing the fluorescence intensity at the maximum emission wavelength with/without the analyte.

SMILES: CCN(CCCN(C)C)c1ccc2c(=O)c3ccc(N)cc3oc2c1 [L, 3-Amino-6-[(3-dimethylamino-propyl)-ethyl-amino]-xanthen-9-one]
- fluorescence response to DNA: selective response; also recorded: selective increase of fluorescence intensity
